Measured values as given in ChEMBL document CHEMBL5584231, “Rational design of a new short anticancer peptide with good potential for cancer treatment” (Eur J Med Chem, 2024).
The source made the active and inactive calls. The calls are words filed in the database; no cut-off is given here. Residues, ends and D or L forms follow the SMILES beside them.

Experiments:
[1] = Stability in mouse serum assessed as half life at 10 mM incubated for 12 hrs by RP-HPLC analysis; assay type: ADME, cell-free
[2] = Acute toxicity in female Balb/c mouse assessed as cellular swelling in liver at approximately LD50 administered as single ip dose by H and E staining based analysis; assay type: organism-based; settings: in vivo
MCF7 [3] = assay: Induction of apoptosis in human MCF7 cells assessed as live cells at 1 times IC50 measured after 24 hrs by Annexin V-FITC staining based flow cytometry analysis (reference value: 92%); assay type: functional
[4] = Toxicity in female Balb/c mouse implanted with mouse 4T1 cells assessed as reduction in body weight at 12 micromol/kg, ip administered every other day for 2 weeks and measured every 2 days; assay type: organism-based; settings: in vivo, 336 h, dose 12 µmol/kg
MCF7 [5] = assay: Antimigratory activity in human MCF7 cells assessed as reduction in cell migration at 1 times IC50 measured after 24 hrs by scratch-wound healing assay; assay type: functional, cell-based
Cell membrane [6] = assay: Disruption of cell membrane in human MCF7 cells assessed as LDH release at 2.5 to 40 uM incubated for 1 hr by fluorescence based microplate reader analysis; assay type: cell membranes; settings: dose 2.5-40 µM
[7] = Acute toxicity in female Balb/c mouse assessed as heart damage at approximately LD50 administered as single ip dose by H and E staining based analysis; assay type: organism-based; settings: in vivo
Cell membrane [8] = assay: Induction of cell membrane damage in human MCF7 cells assessed as nucleic acid leakage at 1 to 2 times IC50 measured after 0.5 to 6 hrs by UV based analysis; assay type: cell membranes; settings: time 0.5-6 hrs
[9] = Toxicity in female Balb/c mouse implanted with mouse 4T1 cells assessed as animal death at 12 micromol/kg, ip administered every other day for 2 weeks; assay type: organism-based; settings: in vivo, 336 h, dose 12 µmol/kg
[10] = Toxicity in female Balb/c mouse implanted with mouse 4T1 cells assessed as pathological changes in lung at 12 micromol/kg, ip administered every other day for 2 weeks by H and E staining based analysis; assay type: organism-based; settings: in vivo, 336 h, dose 12 µmol/kg
[11] = Toxicity in female Balb/c mouse implanted with mouse 4T1 cells assessed as pathological changes in spleen at 12 micromol/kg, ip administered every other day for 2 weeks by H and E staining based analysis; assay type: organism-based; settings: in vivo, 336 h, dose 12 µmol/kg
Cell membrane [12] = assay: Disruption of cell membrane integrity in human MCF7 cells assessed as increase in PI fluorescence at 1 times IC50 by laser confocal scanning microscopic analysis; settings: time 0-120 min, TDE = time-dependent effect
MCF7 [13] = assay: Anti-invasion activity in human MCF7 cells assessed as reduction in number of passing cells on polycarbonate membrane at 1 times IC50 measured after 24 hrs by crystal violet staining based transwell assay; assay type: functional, cell-based
[14] = Stability in mouse serum assessed as compound remaining at 10 mM incubated for 12 hrs by RP-HPLC analysis; assay type: ADME, cell-free; settings: read-out: Stability
4T1 [15] = assay: Antitumor activity against mouse 4T1 cells implanted in female Balb/c mouse assessed as reduction in tumor weight at 12 micromol/kg, ip administered every other day for 2 weeks and measured every 2 days relative to control; assay type: functional; parameters: scale not given: the % may be the effect or the level left; settings: dose 12 µmol/kg
Cell membrane [16] = assay: Induction of morphological changes in cell membrane of human MCF7 cells assessed as membrane damage at 1 times IC50 incubated for 1 hr by SEM analysis; assay type: cell membranes
[17] = Therapeutic index, ratio of HC10 for mouse RBC to IC50 for cytotoxicity against human HeLa cells; assay type: toxicity, cell-based; settings: mouse RBC and HeLa cells, read-out: TI
MCF7 [18] = assay: Induction of apoptosis in human MCF7 cells assessed as late apoptotic cells at 1 times IC50 measured after 24 hrs by Annexin V-FITC staining based flow cytometry analysis (reference value: 1.60%); assay type: functional
MCF7 [19] = assay: Cytotoxicity against human MCF7 cells assessed as cell death at 1 times IC50 measured within 30 mins by MTT assay relative to control; assay type: functional; settings: 0.5 h
[20] = Acute toxicity in female Balb/c mouse assessed as cellular swelling in spleen at approximately LD50 administered as single ip dose by H and E staining based analysis; assay type: organism-based; settings: in vivo
Cell membrane [21] = assay: Disruption of cell membrane in human MCF7 cells assessed as LDH release at 40 uM incubated for 1 hr by fluorescence based microplate reader analysis relative to control; assay type: cell membranes
MCF7 [22] = assay: Induction of apoptosis in human MCF7 cells assessed as dead cells at 1 times IC50 measured after 24 hrs by Annexin V-FITC staining based flow cytometry analysis (reference value: 6.41%); assay type: functional
[23] = Toxicity in female Balb/c mouse implanted with mouse 4T1 cells assessed as pathological changes in heart at 12 micromol/kg, ip administered every other day for 2 weeks by H and E staining based analysis; assay type: organism-based; settings: in vivo, 336 h, dose 12 µmol/kg
Cell membrane [24] = assay: Disruption of cell membrane integrity in human MCF7 cells assessed as increase in PI fluorescence at 2 times IC50 measured after 0 to 120 mins by laser confocal scanning microscopic analysis; assay type: cell membranes; settings: time 0-120 min
Cell membrane [25] = assay: Induction of morphological changes in cell membrane of human MCF7 cells assessed as intracellular outflow at 1 times IC50 incubated for 1 hr by SEM analysis; assay type: cell membranes
[26] = Drug uptake in human MCF7 cells at 5 uM incubated for 1 hr by laser confocal scanning microscopic analysis; assay type: ADME, cell-based; settings: mcf7, 1 h
[27] = Acute toxicity in female Balb/c mouse assessed as lung damage at approximately LD50 administered as single ip dose by H and E staining based analysis; assay type: organism-based; settings: in vivo
[28] = Toxicity in female Balb/c mouse implanted with mouse 4T1 cells assessed as pathological changes in liver at 12 micromol/kg, ip administered every other day for 2 weeks by H and E staining based analysis; assay type: organism-based; settings: in vivo, 336 h, dose 12 µmol/kg
4T1 [29] = assay: Antitumor activity against mouse 4T1 cells implanted in female Balb/c mouse assessed as reduction in tumor growth at 12 micromol/kg, ip administered every other day for 2 weeks and measured every 2 days; assay type: functional, organism-based; settings: dose 12.0 µmol/kg
A549 = assay: Cytotoxicity against human A549 cells assessed as inhibition of cell growth incubated for 1 hr by MTT assay; assay type: functional, cell-based; settings: A549, 1 h
[30] = Toxicity in female Balb/c mouse implanted with mouse 4T1 cells assessed as pathological changes in kidney at 12 micromol/kg, ip administered every other day for 2 weeks by H and E staining based analysis; assay type: organism-based; settings: in vivo, 336 h, dose 12 µmol/kg
[31] = Stability in mouse serum assessed as compound remaining at 10 mM incubated for 6 hrs by RP-HPLC analysis; assay type: ADME, cell-free; settings: read-out: Stability
[32] = Therapeutic index, ratio of HC10 for mouse RBC to IC50 for cytotoxicity against RG cells (unknown origin); assay type: toxicity, cell-based; settings: mouse RBC and RG cells, read-out: TI
MCF7 [33] = assay: Cytotoxicity against human MCF7 cells assessed as reduction in cell survival at 0.5 to 1 times IC50 incubated for 24 hrs in presence of 1 uM paclitaxel by MTT assay; assay type: functional, cell-based
MCF7 [34] = assay: Cytotoxicity against human MCF7 cells assessed as cell viability at 2 times IC50 measured for 30 mins by MTT assay relative to control; assay type: functional; settings: 0.5 h
Cell membrane [35] = assay: Induction of morphological changes in cell membrane of human MCF7 cells assessed as severe membrane rupture at 1 times IC50 incubated for 1 hr by SEM analysis; assay type: cell membranes
HeLa = assay: Cytotoxicity against human HeLa cells assessed as inhibition of cell growth incubated for 1 hr by MTT assay; assay type: functional, cell-based
MCF7 [36] = assay: Induction of apoptosis in human MCF7 cells assessed as early apoptotic cells at 1 times IC50 measured after 24 hrs by Annexin V-FITC staining based flow cytometry analysis (reference value: 0.014%); assay type: functional

**Q.** What does the source list for `CC(C)C[C@H](NC(=O)[C@H](CCCCN)NC(=O)[C@H](CCCCN)NC(=O)[C@H](CC(C)C)NC(=O)[C@H](CC(C)C)NC(=O)[C@H](CCCCN)NC(=O)[C@H](CCCCN)NC(=O)[C@H](CC(C)C)NC(=O)[C@H](CC(C)C)NC(=O)[C@H](CCCCN)NC(=O)[C@H](CCCCN)NC(=O)[C@H](CC(C)C)NC(=O)[C@@H](N)CC(C)C)C(=O)N[C@@H](CCC(=O)O)C(N)=O` (H-LLKKLLKKLLKKLE-NH2)?
**A.** half-life at 10000 µM [1]: 7.78 h; Activity [2]: Toxic; Activity (MCF7 [3]): 57.2%; Activity [4]: Non-Toxic; Activity (MCF7 [5]): Active; Activity (Cell membrane [6]): Active; Activity [7]: Non-Toxic; Activity (Cell membrane [8]): Active; Activity [9]: Non-Toxic; Activity [10]: Non-Toxic; Activity [11]: Non-Toxic; Activity (Cell membrane [12]): Tde; Activity (MCF7 [13]): Active; remaining at 12 h, 10000 µM [14]: 28.6%; Activity (4T1 [15]): 33.4%; Activity (Cell membrane [16]): Active; selectivity ratio [17]: 32.1; Activity (MCF7 [18]): 19.1%; Activity (MCF7 [19]): ~50%; Activity [20]: Toxic; Activity (Cell membrane [21]): 74.1%; Activity (MCF7 [22]): 5.69%; Activity [23]: Non-Toxic; Activity (Cell membrane [24]): Active; Activity (Cell membrane [25]): Active; Drug uptake [26]: Active; Activity [27]: Non-Toxic; Activity [28]: Non-Toxic; Activity (4T1 [29]): Active; IC50 (A549): 14.4 µM; Activity [30]: Non-Toxic; remaining at 6 h, 10000 µM [31]: > 60%; selectivity ratio [32]: 14.2; Activity (MCF7 [33]): Active; Activity (MCF7 [34]): ~30%; Activity (Cell membrane [35]): Active; IC50 (HeLa): 9.46 µM; Activity (MCF7 [36]): 18%
